Source: ChEMBL document CHEMBL4406795, “An overview on the synthetic and medicinal perspectives of indenopyrazoles” (Eur J Med Chem, 2019)
Values after ≈ are worked out from the molar mass of the structure shown.

Legend:
[1] = target: Cyclin-dependent kinase 2 (Homo sapiens, UniProt P24941); assay: Inhibition of CDK2 (unknown origin)
Bacillus subtilis [2] = assay: Antibacterial activity against Bacillus subtilis MTCC 441 after 48 hrs by serial tube dilution method; assay type: functional; details: MTCC 441, 48 h
Staphylococcus aureus [3] = assay: Antibacterial activity against Staphylococcus aureus MTCC 7443 after 48 hrs by serial tube dilution method; assay type: functional; details: MTCC 7443, 48 h
Escherichia coli [4] = assay: Antibacterial activity against Escherichia coli MTCC 42 after 48 hrs by serial tube dilution method; assay type: functional; details: for MIC: Escherichia coli, MTCC 42, 48 h
Candida albicans [5] = assay: Antifungal activity against Candida albicans MTCC 183 after 120 hrs by serial tube dilution method; assay type: functional; details: MTCC 183, 120 h
Aspergillus niger [6] = assay: Antifungal activity against Aspergillus niger MTCC 282 after 120 hrs by serial tube dilution method; assay type: functional; details: MTCC 282, 120 h
Bacillus subtilis [7] = assay: Antibacterial activity against Bacillus subtilis MTCC 441 assessed as zone of inhibition; assay type: functional
Staphylococcus aureus [8] = assay: Antibacterial activity against Staphylococcus aureus MTCC 7443 assessed as zone of inhibition; assay type: functional
Escherichia coli [9] = assay: Antibacterial activity against Escherichia coli MTCC 42 assessed as zone of inhibition; assay type: functional
Candida albicans [10] = assay: Antifungal activity against Candida albicans MTCC 183 assessed as zone of inhibition; assay type: functional
Aspergillus niger [11] = assay: Antifungal activity against Aspergillus niger MTCC 282 assessed as zone of inhibition; assay type: functional
Pseudomonas aeruginosa = assay: Antibacterial activity against Pseudomonas aeruginosa MTCC 741 after 48 hrs by serial tube dilution method; assay type: functional; details: MTCC 741, 48 h

O=C(Nc1cccc2c1C(=O)c1c-2n[nH]c1-c1ccc(C(=O)N2CCNCC2)s1)NN1CCOCC1
IC50 [1]: 8 nM

O=[N+]([O-])c1cccc(-c2c3c(nn2-c2ccccc2)-c2ccccc2C3)c1
MIC (Bacillus subtilis [2]): 50 µg/mL (≈ 141 µM) | MIC (Staphylococcus aureus [3]): 50 µg/mL (≈ 141 µM) | MIC (Escherichia coli [4]): 50 µg/mL (≈ 141 µM) | MIC (Candida albicans [5]): 50 µg/mL (≈ 141 µM) | MIC (Aspergillus niger [6]): 50 µg/mL | inhibition zone (IZ) (Bacillus subtilis [7]): 17 mm | inhibition zone (IZ) (Staphylococcus aureus [8]): 17 mm | inhibition zone (IZ) (Escherichia coli [9]): 17 mm | inhibition zone (IZ) (Candida albicans [10]): 15 mm | inhibition zone (IZ) (Aspergillus niger [11]): 15 mm

COc1ccc(-c2[nH]nc3c2C(=O)c2c(NC(=O)CN4CCN(C(=N)N)CC4)cccc2-3)cc1
IC50 [1]: 13 nM

CCc1nn(-c2nc(-c3ccc(Cl)cc3)cs2)c2c1Cc1ccccc1-2
-logMIC (Escherichia coli [4]): 1.78

COc1ccc(-c2n[nH]c3c2C(=O)c2c(C=O)cccc2-3)cc1
IC50 [1]: 57 nM

NC(=O)Nc1cccc2c1C(=O)c1c-2n[nH]c1-c1csc(Cl)c1
IC50 [1]: 46 nM

Cc1ccc2nc(-n3nc(-c4ccc(Cl)cc4)c4c3-c3ccccc3C4=O)sc2c1
MIC (Aspergillus niger [6]): 3.6 µM

OC(Cn1cncn1)(Cn1cncn1)c1ccc(F)cc1F [FLUCONAZOLE]
MIC (Aspergillus niger [6]): 5 µM

Cc1nn(-c2nc(-c3ccc(Cl)cc3)cs2)c2c1C(=O)c1ccccc1-2
-logMIC (Escherichia coli [4]): 1.479

O=[N+]([O-])c1ccc(-c2c3c(nn2-c2ccccc2)-c2ccccc2C3)cc1
MIC (Bacillus subtilis [2]): 50 µg/mL (≈ 141 µM) | MIC (Staphylococcus aureus [3]): 50 µg/mL (≈ 141 µM) | MIC (Escherichia coli [4]): 50 µg/mL (≈ 141 µM) | MIC (Candida albicans [5]): 50 µg/mL (≈ 141 µM) | MIC (Aspergillus niger [6]): 50 µg/mL | inhibition zone (IZ) (Bacillus subtilis [7]): 18 mm | inhibition zone (IZ) (Staphylococcus aureus [8]): 18 mm | inhibition zone (IZ) (Escherichia coli [9]): 18 mm | inhibition zone (IZ) (Candida albicans [10]): 13 mm | inhibition zone (IZ) (Aspergillus niger [11]): 13 mm

CCc1nn(-c2nc(-c3ccc(Cl)cc3)cs2)c2c1C(=O)c1ccccc1-2
-logMIC (Escherichia coli [4]): 2.098

O=[N+]([O-])c1ccc(-c2nn(-c3ccccc3)cc2-c2c3c(nn2-c2ccccc2)-c2ccccc2C3)cc1
MIC (Bacillus subtilis [2]): 50 µg/mL (≈ 101 µM) | MIC (Staphylococcus aureus [3]): 50 µg/mL (≈ 101 µM) | MIC (Escherichia coli [4]): 50 µg/mL (≈ 101 µM) | MIC (Candida albicans [5]): 50 µg/mL (≈ 101 µM) | MIC (Aspergillus niger [6]): 50 µg/mL | inhibition zone (IZ) (Bacillus subtilis [7]): 20 mm | inhibition zone (IZ) (Staphylococcus aureus [8]): 20 mm | inhibition zone (IZ) (Escherichia coli [9]): 20 mm | inhibition zone (IZ) (Candida albicans [10]): 18 mm | inhibition zone (IZ) (Aspergillus niger [11]): 18 mm

Cc1nn(-c2nc(-c3ccc(Cl)cc3)cs2)c2c1Cc1ccccc1-2
-logMIC (Escherichia coli [4]): 1.764

COc1cc2c(cc1OC)C1=NN(C(N)=S)C(c3ccc(F)cc3)C1C2 (stereo unspecified)
MIC (Bacillus subtilis [2]): 4 µg/mL (≈ 10.8 µM) | MIC (Staphylococcus aureus [3]): 4 µg/mL (≈ 10.8 µM) | MIC (Escherichia coli [4]): 4 µg/mL (≈ 10.8 µM) | MIC (Pseudomonas aeruginosa): 4 µg/mL (≈ 10.8 µM)

Clc1ccc(-c2c3c(nn2-c2ccccc2)-c2ccccc2C3)cc1
MIC (Candida albicans [5]): 50 µg/mL (≈ 146 µM) | MIC (Aspergillus niger [6]): 50 µg/mL | inhibition zone (IZ) (Candida albicans [10]): 16 mm | inhibition zone (IZ) (Aspergillus niger [11]): 16 mm

COc1ccc(C2C3Cc4cc(OC)c(OC)cc4C3=NN2C(N)=O)cc1 (stereo unspecified)
MIC (Candida albicans [5]): 2 to 4 µg/mL (≈ 5.44 to 10.9 µM) | MIC (Aspergillus niger [6]): 2 to 4 µg/mL

Clc1ccc(-c2nn(-c3ccccc3)cc2-c2c3c(nn2-c2ccccc2)-c2ccccc2C3)cc1
MIC (Bacillus subtilis [2]): 50 µg/mL (≈ 103 µM) | MIC (Staphylococcus aureus [3]): 50 µg/mL (≈ 103 µM) | MIC (Escherichia coli [4]): 50 µg/mL (≈ 103 µM) | inhibition zone (IZ) (Bacillus subtilis [7]): 17 mm | inhibition zone (IZ) (Staphylococcus aureus [8]): 17 mm | inhibition zone (IZ) (Escherichia coli [9]): 17 mm
